Results reported in patent publication US9593097B2, “Axl inhibitors” (Pfizer Inc., priority 2014, dated 2017).
Read-outs that look alike come from different tables or passages of the source.

Assays:
[1] = molecular target: Human wild-type receptor tyrosine kinase protein Axl (residues 505-811) (Homo sapiens (Human), UniProt P30530); settings: read-out: ENZYME AXL KI; Table 4B
[2] = molecular target: Axl phosphorylation in 293MSR-AxlWT6 cells (Homo sapiens (Human), UniProt P30530); assay: Cellular Axl phosphorylation ELISA assay (Gas6-stimulated 293MSR-AxlWT6 cells); format: cell-based; settings: read-out: CELL AXL IC50
Description: Cellular Axl Phosphorylation ELISA Assay
After 6-7 hrs in tissue culture incubator at 37° C. 5% CO2, medium was removed, serum-free medium was added (with 0.04% bovine serum albumin) and plates were returned to incubator where they remained overnight. […] Media was then removed and lysis buffer was added to wells and shaken at 4° C. for 30 min to generate protein lysates. Subsequently, phosphorylation of Axl was assessed by a sandwich ELISA method using a DuoSet IC Human Phospho-Axl ELISA assay kit (R&D System), an immobilized mouse anti-human Axl antibody and an anti-phospho-tyrosine-HRP antibody as a detection antibody. Antibody-coated plates were (a) incubated in presence of protein lysates at room temperature for 2 hrs, (b) washed seven times in 0.1% Tween 20 in PBS, (c) incubated with secondary antibody (a horseradish peroxidase-conjugated […]) for 2 hrs, (d) washed seven times again, (e) TMB peroxidase substrate (Bio-Rad) was added to initiate a colorimetric reaction and stopped by adding 0.2 N H2SO4, and (f) measured at OD 450 nm using a spectrophotometer. IC50 values were calculated by concentration-response curve fitting using a four-parameter analytic method and reported in μM.
For Table 4B, IC50 values were calculated by concentration-response curve fitting using a four-parameter analytic method and reported in nM.

Human wild-type receptor tyrosine kinase protein Axl (residues 505-811), sequence (P30530 505-811): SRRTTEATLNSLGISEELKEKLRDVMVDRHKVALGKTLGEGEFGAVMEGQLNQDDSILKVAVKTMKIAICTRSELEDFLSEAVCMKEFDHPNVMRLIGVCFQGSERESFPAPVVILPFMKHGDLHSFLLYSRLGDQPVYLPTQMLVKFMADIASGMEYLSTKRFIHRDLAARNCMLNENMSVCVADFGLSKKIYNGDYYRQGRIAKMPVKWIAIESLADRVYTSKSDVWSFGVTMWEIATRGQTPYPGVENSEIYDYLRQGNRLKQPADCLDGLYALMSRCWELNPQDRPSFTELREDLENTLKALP
Axl phosphorylation in 293MSR-AxlWT6 cells, sequence (P30530 26-894): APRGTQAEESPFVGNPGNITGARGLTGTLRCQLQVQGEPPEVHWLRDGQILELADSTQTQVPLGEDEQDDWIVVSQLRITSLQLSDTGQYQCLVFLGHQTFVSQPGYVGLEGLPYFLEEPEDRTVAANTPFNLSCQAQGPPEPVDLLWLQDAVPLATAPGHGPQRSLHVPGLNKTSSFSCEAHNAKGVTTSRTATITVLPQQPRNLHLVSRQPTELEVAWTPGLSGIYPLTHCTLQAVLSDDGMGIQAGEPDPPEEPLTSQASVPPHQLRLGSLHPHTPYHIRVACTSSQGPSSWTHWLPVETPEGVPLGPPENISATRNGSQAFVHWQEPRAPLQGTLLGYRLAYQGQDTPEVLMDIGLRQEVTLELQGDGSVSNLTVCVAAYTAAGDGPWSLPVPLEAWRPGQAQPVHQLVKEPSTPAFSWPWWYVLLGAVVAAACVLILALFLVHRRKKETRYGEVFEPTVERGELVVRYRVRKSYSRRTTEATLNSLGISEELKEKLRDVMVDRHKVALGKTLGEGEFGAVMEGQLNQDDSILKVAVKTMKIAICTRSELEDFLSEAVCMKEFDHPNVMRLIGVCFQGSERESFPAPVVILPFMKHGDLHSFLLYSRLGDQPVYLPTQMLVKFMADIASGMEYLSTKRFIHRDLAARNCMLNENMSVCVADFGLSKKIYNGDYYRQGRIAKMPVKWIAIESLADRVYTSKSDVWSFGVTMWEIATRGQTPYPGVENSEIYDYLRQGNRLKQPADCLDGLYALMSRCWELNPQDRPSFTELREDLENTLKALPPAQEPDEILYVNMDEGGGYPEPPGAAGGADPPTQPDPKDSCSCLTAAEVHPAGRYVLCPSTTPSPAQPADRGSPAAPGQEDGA

Row | IC50 ([2]; Table 4A) [nM] | Compound | Ki [1] [nM] | IC50 ([2]; Table 4B) [nM]
1 | 14.9 | COCCNC(=O)c1cc(N2CCC(c3ccc(N)c(C(N)=O)n3)CC2)nc(O[C@H](C)COC)n1 [Example 7, 6-[4-(5-amino-6-carbamoylpyridin-2-yl)piperidin-1-yl]-N-(2-methoxyethyl)-2-{[(2R)-1-methoxypropan-2-yl]oxy}pyrimidine-4-carboxamide] |  | 
2 | 15.5 | N#C[C@@H]1C[C@@H]1COc1nc(C(=O)NC23CC(C2)C3)cc(N2CCC(c3n[nH]c4ncccc34)C(F)C2)n1 (single isomer, unassigned) [Example 74] |  | 
3 | 3.84 | C[C@H](CO)NC(=O)c1cc(N2CCC(c3n[nH]c4ncccc34)CC2)nc(OCC2CC(F)(F)C2)n1 [Example 47, 2-[(3,3-difluoro-cyclobutyl)methoxy]-N-[(2R)-1-hydroxypropan-2-yl]-6-[4-(1H-pyrazolo[3,4-b]pyridin-3-yl)piperidin-1-yl]pyrimidine-4-carboxamide] |  | 
4 | 0.36 | C[C@H](CO)NC(=O)c1cc(N2CCC(COc3cc(-c4cn(C)cn4)cnc3N)CC2)nc(OCC2CC2)n1 [Example 384, 6-[4-({[2-amino-5-(1-methyl-1H-imidazol-4-yl)pyridin-3-yl]oxy}methyl)piperidin-1-yl]-2-(cyclopropylmethoxy)-N-[(2R)-1-hydroxypropan-2-yl]pyrimidine-4-carboxamide] |  | 
5 | 1.86 | N#C[C@@H]1C[C@@H]1COc1nc(C(=O)NC23CC(C2)C3)cc(N2CCC(c3n[nH]c4nccc(OCCO)c34)CC2)n1 [Example 65, N-(bicyclo[1.1.1]pent-1-yl)-2-{[(1S,2R)-2-cyanocyclopropyl]methoxy}-6-{4-[4-(2-hydroxyethoxy)-1H-pyrazolo[3,4-b]pyridin-3-yl]piperidin-1-yl}pyrimidine-4-carboxamide] |  | 
6 | 12.4 | COC[C@@H](C)Oc1nc(C(=O)NC2(C#N)CCC2)cc(N2CCC(c3n[nH]c4ncccc34)CC2)n1 [Example 14, N-(1-cyanocyclobutyl)-2-{[(2R)-1-methoxypropan-2-yl]oxy}-6-[4-(1H-pyrazolo[3,4-b]pyridin-3-yl)piperidin-1-yl]pyrimidine-4-carboxamide] |  | 

The remaining lines, values behind:

Row | Compound | IC50 ([2]; Table 4A) [nM] | Ki [1] [nM] | IC50 ([2]; Table 4B) [nM]
7 | COc1ccnc2[nH]cc(C3CCN(c4cc(C(=O)N[C@H](C)CO)nc(OC[C@H]5CCCO5)n4)CC3)c12 [Example 459, N-[(2R)-1-hydroxypropan-2-yl]-6-[4-(4-methoxy-1H-pyrrolo[2,3-b]pyridin-3-yl)piperidin-1-yl]-2-[(2R)-tetrahydrofuran-2-ylmethoxy]pyrimidine-4-carboxamide] |  | < 0.013 | 0.272
8 | COc1ccnc2[nH]cc(C3CCN(c4cc(C(=O)N[C@H](C)CO)nc(OCC5(C#N)CC5)n4)CC3)c12 [Example 387, 2-[(1-cyanocyclopropyl)methoxy]-N-[(2R)-1-hydroxypropan-2-yl]-6-[4-(4-methoxy-1H-pyrrolo[2,3-b]pyridin-3-yl)piperidin-1-yl]pyrimidine-4-carboxamide] |  | < 0.018 | 0.152
9 | COC[C@@H](C)Oc1nc(C(=O)NC23CC(C2)C3)nc(N2CCC(c3c[nH]c4nccc(OC)c34)CC2)n1 (single isomer, unassigned) [Example 505] |  | < 0.082 | 0.409
10 | C[C@H](NC(=O)c1nc(OCC2CC2)nc(N2CCC(COc3cc(-c4cn(C)cn4)cnc3N)CC2)n1)C(F)(F)F [Example 391, 4-[4-({[2-amino-5-(1-methyl-1H-imidazol-4-yl)pyridin-3-yl]oxy}methyl)piperidin-1-yl]-6-(cyclopropylmethoxy)-N-[(2S)-1,1,1-trifluoropropan-2-yl]-1,3,5-triazine-2-carboxamide] |  | < 0.013 | 0.143
11 | COC[C@@H](C)Oc1nc(C(=O)NC2CCC2)nc(N2CCC(c3c[nH]c4nccc(OC)c34)CC2)n1 [Example 502, N-cyclobutyl-4-{[(2R)-1-methoxypropan-2-yl]oxy}-6-[4-(4-methoxy-1H-pyrrolo[2,3-b]pyridin-3-yl)piperidin-1-yl]-1,3,5-triazine-2-carboxamide] |  | < 0.082 | 0.132
12 | COc1ccnc2[nH]nc(C3CCN(c4nc(OC[C@H]5C[C@H]5C#N)nc(C(=O)NC5CCC5)n4)CC3)c12 [Example 501, 4-{[(1S,2R)-2-cyanocyclopropyl]methoxy}-N-cyclobutyl-6-[4-(4-methoxy-1H-pyrazolo[3,4-b]pyridin-3-yl)piperidin-1-yl]-1,3,5-triazine-2-carboxamide] |  | < 0.412 | 1.07
13 | COc1ccnc2[nH]cc(C3CCN(c4nc(OC[C@H]5C[C@H]5C#N)nc(C(=O)NC56CC(C5)C6)n4)CC3)c12 (single isomer, unassigned) [Example 504] |  | < 0.082 | 0.125
14 | N#C[C@@H]1C[C@@H]1COc1nc(C(=O)NC23CC(C2)C3)nc(N2CCC(COc3cncnc3N)CC2)n1 [Example 66, 4-(4-{[(4-aminopyrimidin-5-yl)oxy]methyl}piperidin-1-yl)-N-(bicyclo[1.1.1]pent-1-yl)-6-{[(1S,2R)-2-cyanocyclopropyl]methoxy}-1,3,5-triazine-2-carboxamide] | 61.8 |  | 
15 | N#C[C@@H]1C[C@@H]1COc1nc(C(=O)NCC2CC2)nc(N2CCC(c3ccc(N)c(C(N)=O)n3)CC2)n1 [Example 87, 4-[4-(5-amino-6-carbamoylpyridin-2-yl)piperidin-1-yl]-6-{[(1S,2R)-2-cyanocyclopropyl]methoxy}-N-(cyclopropyl-methyl)-1,3,5-triazine-2-carboxamide] | 66 |  | 
16 | COc1ccnc2[nH]nc(C3CCN(c4cc(C(=O)N[C@H](C)CO)nc(OCc5ccccc5)n4)CC3)c12 [Example 415, 2-(benzyloxy)-N-[(2R)-1-hydroxypropan-2-yl]-6-[4-(4-methoxy-1H-pyrazolo[3,4-b]pyridin-3-yl)piperidin-1-yl]pyrimidine-4-carboxamide] |  | < 0.013 | 0.052
17 | CCOc1nc(C(=O)NC23CC(C2)C3)cc(N2CCC(c3nc(C(N)=O)ccc3OCCN(C)C)CC2)n1 [Example 41, N-(bicyclo[1.1.1]pent-1-yl)-6-(4-{6-carbamoyl-3-[2-(dimethylamino)ethoxy]pyridin-2-yl}piperidin-1-yl)-2-ethoxypyrimidine-4-carboxamide] | 124 |  | 
